Measurements: patent publication US8030339B2, “Imidazole derivatives for the treatment of anxiety and related diseases” (Neurosearch A/S, priority 2005, dated 2011)

Legend:
[1] = biological target: benzodiazepine binding site on GABAA receptors; assay: In vitro inhibition of 3H-flunitrazepam (3H-FNM) binding; design: species or system rat; conditions: cerebral cortex membranes from male Wistar rats; 3H-FNM 1 nM; 40 min at 2° C.
Protocol: In Vitro Inhibition of […] (3H-FNM) Binding
The GABA recognition site and the benzodiazepine modulatory unit can selectively be labelled with ^3H-flunitrazepam.
Preparations are performed at 0-4° C. unless otherwise indicated. Cerebral cortex from male Wistar rats (150-200 g) is homogenised for 5-10 sec in 20 ml Tris-HCl (30 mM, pH 7.4) using an Ultra-Turrax homogeniser. The suspension is centrifuged at 27,000×g for 15 min and the pellet is washed three times with buffer (centrifuged at 27,000×g for 10 min). The washed pellet is homogenized in 20 ml of buffer and incubated on a water bath (37° C.) for 30 min to remove endogenous GABA and then centrifuged for 10 min at 27,000×g. The pellet is then homogenized in buffer and centrifuged for 10 min at 27,000×g. The final pellet is resuspended in 30 ml buffer and the preparation is frozen and stored at −20° C.
The membrane preparation is thawed and centrifuged at 2° C. for 10 min at 27,000×g. The pellet is washed twice with 20 ml 50 mM Tris-citrate, pH 7.1 using an Ultra-Turrax homogeniser and centrifuged for 10 min at 27,000×g. The final pellet is resuspended in 50 mM Tris-citrate, pH 7.1 (500 ml buffer per g of original tissue), and then used for binding assays. Aliquots of 0.5 ml tissue are added to 25 μl of test solution and 25 μl of ^3H-FNM (1 nM, final concentration), mixed and incubated for 40 min at 2° C. Non-specific binding is determined using Clonazepam (1 μM, final concentration). After incubation the samples are added 5 ml of ice-cold buffer and poured directly onto Whatman GF/C glass fibre filters under suction and immediately washed with 5 ml ice-cold buffer. The amount of radioactivity on the filters is determined by conventional liquid scintillation counting. Specific binding is total binding minus non-specific binding.
25-75% inhibition of specific binding must be obtained, before calculation of an IC50.
The test value will be given as IC50 (the concentration (μM) of the test substance which inhibits the specific binding of ^3H-FNM by 50%).
Co is specific binding in control assays, and […]

| Compound | IC50 [1] [nM] | melting point [°C] |
| --- | --- | --- |
| COc1ccc(F)cc1-c1cccc(-n2cnc(C(=O)c3ccccn3)c2)c1 [Compound 14, [1-(5′-Fluoro-2′-methoxy-biphenyl-3-yl)-1H-imidazol-4-yl]-pyridin-2-yl-methanone] | 2.7 |  |
| O=C(c1ccccc1)c1cn(-c2cccc(-c3ccccc3)c2)cn1 [Compound 8, (1-Biphenyl-3-yl-1H-imidazol-4-yl)-phenyl-methanone] | 36 |  |
| O=C(c1cn(-c2cccc(-c3ccccc3)c2)cn1)n1cccn1 [Compound 178, (1-Biphenyl-3-yl-1H-imidazol-4-yl)-pyrazol-1-yl-methanone] | 5.9 | 124 to 127 |
